# Data from patent US6852700B1, “Colostrinin, and uses thereof” (Ludwig Hirzfeld Institute of Immunology and Experimental …, priority 1996, dated 2005).
# Ends that are not written are not given here.
# Tests used:
# [1] = system: patients with Alzheimer's disease; assay: Treatment of volunteer patients with Alzheimer's disease with tablets for sucking; type: in vivo, human
# Procedure: (§1) The method of treatment of disorders of the central nervous system was investigated on a group of volunteer patients in the early and moderate stages of Alzheimer's disease. The dosage units were administered in the form of tablets for sucking, between meals, containing 0.00015 g of Colostrinin™ defined in Examples I and III. Firstly, 1 tablet was used daily for a period of 3 weeks, then therapy was interrupted for 2-4 weeks and treatment was repeated, administering 2 tablets daily for 3 weeks. […] This is manifested by an inability to synthesise IFN and also tumour necrosis factor TNF-α. This phenomenon permits quantitative measurements of the action of active agent.
# This was followed by a 3-week pause in treatment (during the pause, the tolerance to the inducer returns to normal). Blood samples for investigating stimulation of IFN-γ by Colostrinin™ and control inducers (PHA-10 μg/ml) were taken every week. The method of performing the tests for induction of cytokines and their quantitative determination were described in previous sections.
# as §1, with “early” for “early and moderate”, “sucking” for “sucking,”, “NP” for “Colostrinin™”, “Example II.” for “Examples I and III.”, “3” for “2-4”
# [2] = system: lymphocytes present in whole blood; assay: Induction of cytokines in vitro in whole blood cultures; type: cell-based, human
# Procedure: Induction of cytokines by the polypeptide Colostrinin™ in vitro on blood taken from healthy and sick volunteers taking the pharmaceutical in the form stated in Example III, in cyclic treatment, is carried out as follows.
# Whole blood, containing 10 units per 1 ml of heparin without preservatives is diluted at 1:10 ratio in RPMI 1640 culture medium. Incubation is conducted in the same culture medium without inducers (negative control), or in the presence of 1-100 μg/ml of the polypeptide Colostrinin™ or in the presence of 2 μg/ml blood of phytohaemagglutinin (PHA) and 2 μg/ml blood of lipopolysaccharide (LPS), at a temperature of 37° C., in an atmosphere of 5% carbon dioxide, for 20 hours. Samples with mixture of PHA and LPS are the positive control, as they can stimulate the maximum quantities of cytokines.
# [3] = system: lymphocytes isolated from cord blood (CBL); assay: Induction of cytokines in a culture of lymphocytes isolated from cord blood (CBL); type: cell-based, human; settings: 20 hours
# Procedure: Cord blood obtained from the Gynaecological-Obstetric Department of the Specialist District Hospital in Wroclaw. Induction of cytokines by Colostrinin™ in vitro in lymphocytes of cord blood taken 4-6 hours after parturition is effected in the following way.
# The lymphocytes are isolated using a Ficoll-Paque® gradient containing 5.7 g of the component Ficoll 400 and 9.0 g of the component Diatrizoate Sodium per 100 ml. The lymphocytes isolated are suspended in RPMI-1640 culture medium at density of 2×10^6 lymphocyte cells per 1 ml of culture medium. Colostrinin™ at concentration of 1-20 μg/ml or phytohaemagglutinin at concentration of 10 μg/ml is added to the lymphocyte suspension. The culture is incubated for 20 hours at a temperature of 37° C. Then the level of cytokines in the culture fluids is determined by biological methods.
# mice = assay: Toxicological studies on mice; type: in vivo; settings: both after oral and parenteral administration
# mice of the NZB line = assay: Haemolytic anaemia in mice of the NZB line; type: in vivo; settings: intraperitoneal administration
# sarcoma 180 = assay: Growth of sarcoma 180 in mice; type: in vivo; settings: intraperitoneal administration in mice
# [4] = system: mice exposed to gamma radiation; assay: Radiation sickness in mice exposed to gamma radiation; type: in vivo
# human volunteers = settings: tablets for sucking, at least 25 μg, at least one daily, about 3 weeks
# [5] = early Alzheimer's disease, NP tablets, 1 daily 3 weeks, pause 3 weeks, 2 daily 3 weeks
# [6] = donor four breast cancer, dose 10 μg/ml
# [7] = donor four breast cancer, dose 100 μg/ml
# [8] = donor one. Alzheimer's disease, dose 10 μg/ml
# [9] = donor one. Alzheimer's disease, dose 100 μg/ml
# [10] = donor six healthy young soldier, dose 1 μg/ml
# [11] = donor six healthy young soldier, dose 10 μg/ml
# [12] = donor six healthy young soldier, dose 100 μg/ml
# [13] = donor three schizophrenia, dose 10 μg/ml
# [14] = donor three schizophrenia, dose 100 μg/ml
# [15] = donor two healthy young soldier, dose 1 μg/ml
# [16] = donor two healthy young soldier, dose 10 μg/ml
# [17] = donor two healthy young soldier, dose 100 μg/ml
# [18] = healthy volunteers, inducer dose 10 μg/ml, 20 hours
# [19] = healthy volunteers, inducer dose 100 μg/ml, 20 hours
# [20] = patients with Alzheimer's disease, inducer dose 10 μg/ml
# [21] = patients with Alzheimer's disease, inducer dose 100 μg/ml
# [22] = early and moderate Alzheimer's disease, 1 tablet daily 3 weeks, pause 2-4 weeks, 2 tablets daily 3 weeks
substance,measurement,setting,value
"VESYVPLFP [NP, nonapeptide fragment of Colostrinin obtained by chymotrypsin digestion or chemical synthesis]",clinical effect in patients with Alzheimer's disease,[1]; [5],improvement of contact and uplift of mood were observed
same,reactivity to induction of IFN and TNF-α after treatment,[1]; [5],induced a state of hyporeactivity or tolerance
Colostrinin ™,"production of cytokines, dose dependence","[2]; concentrations of 1-100 μg/ml, whole blood",stimulates the production of cytokines in a dose-dependent fashion
same,"production of cytokines (IFN-γ, TNF-α, IL-6, IL-10, growth factors)",[2]; cultures of lymphocytes of human peripheral blood (including cord blood),stimulates the production of cytokines
same,Titres of IFN determined by Antivirus biotest,[2]; [6],50 units/ml
same,Titres of IFN determined by ELISA IFN-γ,[2]; [6],307 pg/mL
same,Titres of IFN determined by Antivirus biotest,[2]; [7],70 units/ml
same,Titres of IFN determined by ELISA IFN-γ,[2]; [7],523 pg/mL
same,Titres of IFN determined by Antivirus biotest,[2]; [8],20 units/ml
same,Titres of IFN determined by ELISA IFN-γ,[2]; [8],427 pg/mL
same,Titres of IFN determined by Antivirus biotest,[2]; [9],40 units/ml
same,Titres of IFN determined by ELISA IFN-γ,[2]; [9],400 pg/mL
same,Titres of IFN determined by Antivirus biotest,[2]; [10],100 units/ml
same,Titres of IFN determined by ELISA IFN-γ,[2]; [10],2690 pg/mL
same,Titres of IFN determined by Antivirus biotest,[2]; [11],200 units/ml
same,Titres of IFN determined by ELISA IFN-γ,[2]; [11],3778 pg/mL
same,Titres of IFN determined by Antivirus biotest,[2]; [12],600 units/ml
same,Titres of IFN determined by ELISA IFN-γ,[2]; [12],3941 pg/mL
same,Titres of IFN determined by Antivirus biotest,[2]; [13],6 units/ml
same,Titres of IFN determined by ELISA IFN-γ,[2]; [13],29 pg/mL
same,Titres of IFN determined by Antivirus biotest,[2]; [14],6 units/ml
same,Titres of IFN determined by ELISA IFN-γ,[2]; [14],29 pg/mL
same,Titres of IFN determined by Antivirus biotest,[2]; [15],100 units/ml
same,Titres of IFN determined by ELISA IFN-γ,[2]; [15],1413 pg/mL
same,Titres of IFN determined by Antivirus biotest,[2]; [16],300 units/ml
same,Titres of IFN determined by ELISA IFN-γ,[2]; [16],3402 pg/mL
same,Titres of IFN determined by Antivirus biotest,[2]; [17],300 units/ml
same,Titres of IFN determined by ELISA IFN-γ,[2]; [17],2920 pg/mL
same,Cytokines IFN,[2]; [18],50 ± 59 unit/ml
same,Cytokines TNF,[2]; [18],316 ± 371 unit/ml
same,Cytokines IFN,[2]; [19],344 ± 254 unit/ml
same,Cytokines TNF,[2]; [19],670 ± 560 unit/ml
same,Cytokines IFN,[2]; [20],15 ± 9 unit/ml
same,Cytokines TNF,[2]; [20],182 ± 158 unit/ml
same,Cytokines IFN,[2]; [21],21 ± 14 unit/ml
same,Cytokines TNF,[2]; [21],249 ± 187 unit/ml
same,Cytokines IFN,[3]; dose 1 μg/ml,38 ± 66 unit/ml
same,Cytokines TNF,[3]; dose 1 μg/ml,16 ± 17 unit/ml
same,Cytokines IFN,[3]; dose 10 μg/ml,78 ± 80 unit/ml
same,Cytokines TNF,[3]; dose 10 μg/ml,37 ± 35 unit/ml
same,Cytokines IFN,[3]; dose 20 μg/ml,89 ± 79 unit/ml
same,Cytokines TNF,[3]; dose 20 μg/ml,59 ± 41 unit/ml
same,LD50,mice,above 1.25 g/kg of body weight
same,development of haemolytic anaemia,mice of the NZB line,inhibits the development of haemolytic anaemia
same,growth of sarcoma 180,sarcoma 180,inhibit the growth of sarcoma 180
same,protection against radiation sickness,[4],protects the animals against radiation sickness
same,clinical effect in patients with Alzheimer's disease,[1]; [22],improvement of contact and uplift of mood were observed
same,reactivity to induction of IFN and TNF-α after treatment,[1]; [22],induced a state of hyporeactivity or tolerance
same,time course of hyporeactivity to induction of IFN-γ (FIG. 1),"[1]; patient five, 100 μg tablet every other day for three weeks, then 3-week pause",hyporeactivity appears as early as during the first week
same,reactivity to induction of IFN-γ and TNF-α,human volunteers,state of hyporeactivity
"phytohaemagglutinin [PHA, reference compound]",Cytokines IFN,[3]; PHA dose 10 μg/ml,75 ± 66 unit/ml
same,Cytokines TNF,[3]; PHA dose 10 μg/ml,83 ± 69 unit/ml
